Values joined by “and” are separate entries in the source; they are usually repeats but may differ in a detail not shown here. Equal entries are not always repeated. “Also recorded” adds a separate entry of the source.
Legend:
[1] = Pharmacokinetics of orally administered squalamine (ENT-01) in Stage 1; format: in vivo, human
Procedure: PK data were collected on the 10 patients enrolled in Stage 1 and 10 patients enrolled in Stage 2 to determine the extent of systemic absorption. In Stage 1, PK data were obtained at each visit, pre-medication, at 1, 2, 4, 8 and 24 hours (Table 10). In Stage 2, PK was measured on days 1 and 6 of the randomization period pre-medication, at 1, 2, 4 and 8 hours (Table 11).
The mean Cmax, Tmax and T1/2 and AUC of the squalamine ion following squalamine (ENT-01) oral dosing for Stage 1 patients. The PK analyses are only approximate, as the lower limit of the validated concentration range was 10 ng/ml; most of the measured concentrations fell below that value. The mean Cmax, Tmax and T1/2 and AUC of the squalamine ion following squalamine (ENT-01) oral dosing for Stage 2 patients. The PK analyses are only approximate, as the lower limit of the validated concentration range was 0.5 ng/ml.

[2] = test system: patients with PD and constipation; assay: Phase 2 trial Stage 2: CNS symptoms (UPDRS, MMSE, PDHQ, BDI-II, sleep diary); format: in vivo, human; conditions: for patients in whom hallucinations and delusions improved or disappeared during treatment: 6 patients with hallucinations (5) or delusions (1) at baseline; for UPDRS Part 1 (NMS): baseline 11.6 (6.51); for UPDRS Total: baseline 64.4 (23.72); for BDI-II: baseline 10.9 (7.12); for MMSE: baseline 28.4 (1.75)
Excerpt: Exploratory end-points, in addition to constipation, included for example, (i) depression assessed using the Beck Depression Inventory (BDI-II) (Steer et al. 2000) and Unified Parkinson's Disease Rating Scale (UPDRS); (ii) cognition assessed using the Mini Mental State Examination (MMSE) (Palsteia et al. 2018), Unified Parkinson's Disease Rating Scale (UPDRS), and Trail Making Test (TMT); (iii) sleep and REM-behavior disorder (RBD) using a daily sleep diary, I-Button Temperature Assessment, a REM sleep behavior disorder (RBD) questionnaire (RBDQ) (Stiasny-Kolster et al. 2007), and the UPDRS; (iv) hallucinations assessed using the PD hallucinations questionnaire (PDHQ) (Papapetropoulos et al. 2008), the UPDRS, and direct questioning; (v) fatigue using the Parkinson's Disease Fatigue Scale (PFS-16) and the UPDRS; (vi) motor functions using the UPDRS; and (vii) non-motor functions using the UPDRS.
(§1) Assessments were made at baseline and at the end of the fixed dose and washout periods. Circadian system status was evaluated by continuously monitoring wrist skin temperature (Thermochron iButton DS1921H; Maxim, Dallas) following published procedures (Sarabia et al. 2008).
An exploratory analysis was done with respect to the sleep data, the body temperature data, mood, fatigue, hallucinations, cognition and other motor and non-motor symptoms of PD. Continuous measurements within a subject were compared with a paired t-test and continuous measurements between subject groups were compared with a two-group t-test. Categorical data were compared with a chi-squared test or a Fisher's exact test if the expected cell counts are too small for a chi-squared test.
CNS symptoms were evaluated at baseline and at the end of the fixed dose period and the wash-out period (Table 12). Total UPDRS score was 64.4 at baseline, 60.6 at the end of the fixed dose period and 55.7 at the end of the wash-out period (p=0.002); similarly, the motor component of the UPDRS improved from 35.3 at baseline to 33.3 at the end of fixed dose to 30.2 at the end of wash-out (p=0.006). MMSE improved from 28.4 at baseline to 28.7 during treatment and to 29.3 during wash-out (p=0.0006). […] PDHQ improved from 1.3 at baseline to 1.8 during treatment and 0.9 during wash-out (p=0.03). Hallucinations were reported by 5 patients at baseline and delusions in 1 patient. […] The frequency of arm or leg thrashing reported in the sleep diary diminished progressively from 2.2 episodes/week at baseline to 0 at maximal dose. […] Unlike stool-related indices, the improvement in many CNS symptoms persisted during wash-out.

[3] = test system: patients with PD and constipation; assay: Circadian rhythm of wrist skin temperature; format: in vivo, human; conditions: for circadian rhythm of skin temperature / markers of healthy circadian function: oral, 12 evaluable patients
Procedure: as §1
Circadian rhythm of skin temperature was evaluable in 12 patients (i.e., those who had recordings that extended from baseline through washout). Circadian system functionality was evaluated by continuously monitoring wrist skin temperature using a temperature sensor (Thermochron iButton DS1921H; Maxim, Dallas, Tex.) (Sarabia et al. 2008). A nonparametric analysis was performed for each participant to characterize DST as previously described (Sarabia et al. 2008; Ortiz-Tudela et al. 2010).
Briefly, this analysis includes the following parameters: (i) the inter-daily stability (the constancy of 24-hour rhythmic pattern over days, IS); (ii) intra-daily variability (rhythm fragmentation, IV); (iii) average of 10-minute intervals for the 10 hours with the minimum temperature (L10); (iv) average of 10-minute intervals for the 5 hours with the maximum temperature (M5) and the relative amplitude (RA), which was determined by the difference between M5 and L10, divided by the sum of both. Finally, the Circadian Function Index (CFI) was calculated by integrating IS, IV, and RA. Consequently, CFI is a global measure that oscillates between 0 for the absence of circadian rhythmicity and 1 for a robust circadian rhythm (Ortiz-Tudela et al. 2010).

C. elegans model of PD = conditions: in vivo, C. elegans (Perni et al. 2017); cited from earlier work
αS = αS (Homo sapiens, UniProt P37840); conditions: in vitro; cited from earlier work
[4] = Stage 2, end of fixed dose, mean (SD), n = 34
[5] = Stage 2, end of wash-out, mean (SD)
[6] = Stage 2, fixed dose, mean (SD), n = 34

CC(C)[C@@H](CC[C@@H](C)[C@H]1CC[C@H]2[C@@H]3[C@H](O)C[C@H]4C[C@@H](NCCCNCCCCN)CC[C@]4(C)[C@H]3CC[C@]12C)OS(=O)(=O)O (single isomer, unassigned) [squalamine (ENT-01), squalamine]
AUC0-8 hr ([1]; Stage 1, oral 50 mg, 10 patients): 18.5 ng·h/mL
AUC0-8 hr ([1]; Stage 1, oral 100 mg, 9 patients): 29.6 ng·h/mL
AUC0-8 hr ([1]; Stage 1, oral 200 mg, 6 patients): 78.3 ng·h/mL
T1/2 ([1]; Stage 1, oral 200 mg, n = 5): 9.0 (5) hours
approximate oral bioavailability ([1]; Stage 1, oral dosing up to 200 mg, compared with prior phase 1 IV data): about 0.1%
bioavailability ([1]; human, plasma, oral, PD patients, estimated from pharmacokinetic behavior of intravenously administered squalamine in prior clinical studies): < 0.3%
patients in whom hallucinations and delusions improved or disappeared during treatment [2]: 5 of 6
patients in whom hallucinations and delusions improved or disappeared during treatment ([2]; listed as ENT-01): five
patients in whom hallucinations and delusions improved or disappeared during treatment ([2]; listed as aminosterol): five and 5 of 6
increase of total sleep time ([2]; 7.1 hours at baseline to 8.4 hours at 250 mg): 18%
UPDRS Part 1 (NMS) [2, 4]: 10.6 (6.18))
UPDRS Total [2, 4]: 60.6
UPDRS Total ([2]; Stage 2, end of fixed dose, mean (SD), n = 34, listed as Squalamine (ENT-01)): 60.6 (25.60)
UPDRS Part 1 (NMS) [2, 5]: 9.5 (5.27)
UPDRS Total [2, 5]: 55.7
UPDRS Total ([2]; Stage 2, end of wash-out, mean (SD), listed as Squalamine (ENT-01)): 55.7 (23.69)
BDI-II [2, 6]: 9.9 (6.45)
MMSE [2, 6]: 28.7 (1.9)
PDHQ ([2]; Stage 2, wash-out, mean (SD), baseline 1.3 (2.99)): 0.9 (2.33)
BDI-II ([2]; Stage 2, wash-out, mean (SD)): 8.7 (5.19)
MMSE ([2]; Stage 2, wash-out, mean (SD)): 29.3 (1.06)
frequency of arm or leg thrashing reported in the sleep diary ([2]; at maximal dose, baseline 2.2): 0 episodes/week
improvement of frequency of arm or leg thrashing ([2]; baseline 2.2 episodes/week to 0 at maximal dose): 100%
improvement in depression scoring (BDI-II) ([2]; baseline 10.9 to wash-out 8.7): 20%
improvement of UPDRS Part 1 ([2]; baseline 11.6 to wash-out 9.5, listed as aminosterol): ~20% and 18%
improvement of total UPDRS score ([2]; baseline 64.4 to end of wash-out 55.7): 13.5%
total sleep time versus baseline ([2]; beyond 125 mg): consistently higher than baseline
time patient remained free of hallucinations following cessation of dosing ([2]; one patient): 1 month
dose at which hallucinations disappeared ([2]; one patient, colonic prokinetic dose of 175 mg not reached): 100 mg
relative amplitude (RA) ([3]; fixed dose vs baseline, p=0.001): increasing
circadian function index (CFI) ([3]; fixed dose vs baseline, p=0.016): increasing
rhythm stability (inter-daily stability, IS) ([3]; fixed dose vs baseline, p=0.026): increasing
rhythm fragmentation (intra-daily variability, IV) ([3]; fixed dose vs baseline, p=0.031): reducing
circadian rhythm of skin temperature / markers of healthy circadian function ([3]; fixed dose vs baseline): significant positive impact on the circadian rhythm of skin temperature; also recorded: improved all markers of healthy circadian function
circadian rhythm of skin temperature / markers of healthy circadian function ([3]; fixed dose vs baseline, listed as aminosterol): improved all markers of healthy circadian function
circadian parameters during wash-out period ([3]; wash-out vs baseline (IS, CFI), 12 patients): improvement persisted for several of these circadian parameters
formation of aggregates of αS (C. elegans model of PD): inhibit the formation of aggregates of αS
displacement of αS from membranes (αS): can displace αS from membranes
